According to publication PMC7217877, “N-AS-triggered SPMs are direct regulators of microglia in a model of Alzheimer’s disease” (Nature Communications, 2020):
Several values for one entry are separate records, joined by “and”; a condition that tells them apart may be missing. Identical values can stand only once.

Molecular target: T1, COX2 T564A (Homo sapiens, UniProt P35354, T564A)
T1 construct: His (N); made in house
T1 sequence (P35354 18-604 T564A): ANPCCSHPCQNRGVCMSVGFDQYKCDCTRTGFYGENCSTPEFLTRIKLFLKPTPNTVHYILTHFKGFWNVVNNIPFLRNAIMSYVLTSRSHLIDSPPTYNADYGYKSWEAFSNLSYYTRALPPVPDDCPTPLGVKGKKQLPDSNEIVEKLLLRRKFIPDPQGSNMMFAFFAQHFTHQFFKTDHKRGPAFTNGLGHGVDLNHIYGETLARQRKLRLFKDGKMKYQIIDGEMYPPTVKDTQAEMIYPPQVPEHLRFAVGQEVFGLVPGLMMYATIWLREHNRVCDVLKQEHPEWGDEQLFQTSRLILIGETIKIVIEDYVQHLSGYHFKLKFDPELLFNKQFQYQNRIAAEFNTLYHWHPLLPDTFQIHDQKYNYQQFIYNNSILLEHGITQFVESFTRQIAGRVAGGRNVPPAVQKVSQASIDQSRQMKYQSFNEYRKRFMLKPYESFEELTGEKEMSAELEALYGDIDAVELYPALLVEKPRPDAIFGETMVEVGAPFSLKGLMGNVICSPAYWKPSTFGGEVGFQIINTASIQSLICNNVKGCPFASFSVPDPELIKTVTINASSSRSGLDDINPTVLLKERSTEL
Assay: in vitro [14C] acetylation assay of purified COX2
Assay type: biochemical
Parameters: unit not given here
Conditions: replicates, listed as C14 N-AS
Text: Single point mutations in SphK1 (R56A, R57A, R24A, R185A, D178A, and F192A) and COX2 (S565A, N181A, T564A, and S567A) were generated using the In-Fusion Cloning Kits (Clontech) and ORF cDNA expression plasmids of human SphK1 and COX2 gene (Sino Biological Inc, HG15679-NH and HG12036-NH), according to the manufacturer’s instructions. The forward and reverse primers described in Supplementary Table 4. The SphK1 WT, SphK1 mutants, COX2 WT, and COX2 mutant plasmids were transformed in the One shot TOP 10 competent cell (Invitrogen). The bacteria were grown in Luria-Bertani (LB, Invitrogen) plates supplemented with 50 μg ml^−1 kanamycin (Sigma-Aldrich) at 37 °C. The bacterial cell pellets were resuspended in lysis buffer containing 20 mM sodium phosphate (GE Healthcare), 500 mM NaCl (GE Healthcare), 20 mM imidazole (pH 7.4) (GE Healthcare), 0.2 mg ml^−1 lysozyme (Sigma-Aldrich), 20 μg ml^−1 DNase I (Roche), 1 mM MgCl2 (Sigma-Aldrich), and 1 mM PMSF (Sigma-Aldrich) before being lysed by sonication and clarified by centrifugation at 15,493×g for 10 min. […]
Acetylation assays were performed according to previously described procedures with minor modifications. […] Acetylated COX2 proteins bound to the beads were analyzed using a Tri-Carb 3110TR liquid scintillation counter (Perkin-Elmer).

Compound: CCCCCCCCCCCCC/C=C/[C@@H](O)[C@H](CO)NC(C)=O [N-AS, N-((2S,3R,E)-1,3-Dihydroxyoctadec-4-en-2-yl)acetamide]
- C14 radioactivity of COX2, acetylation assay (Fig 1h): 226529 and 226073 and 226403 and 227396 and 226676 and 226952
